Data on two compounds can be found in US6207393A, “Inhibition of intracellular signal transduction by 14-3-3-binding peptides” (Washington University, priority 1999, dated 2001).

Molecules are shown by their SMILES. Several values for one entry are separate records, joined by “and”; a condition that tells them apart may be missing. Identical values can stand only once. Where a SMILES comes first, the peptide text is derived from it. [ ]: non-standard residue; d: D form. pS = N[C@@H](COP(=O)(O)O)C(=O)O Where only a bound is given, the exact number is not on record here.

For assay [1], the target named is T1, 14-3-3 zeta (Homo sapiens, UniProt P63104).
T1 construct: made in house; host or cells: E. coli DH5α (vector pGEX-KT)
T1 sequence (P63104 1-245): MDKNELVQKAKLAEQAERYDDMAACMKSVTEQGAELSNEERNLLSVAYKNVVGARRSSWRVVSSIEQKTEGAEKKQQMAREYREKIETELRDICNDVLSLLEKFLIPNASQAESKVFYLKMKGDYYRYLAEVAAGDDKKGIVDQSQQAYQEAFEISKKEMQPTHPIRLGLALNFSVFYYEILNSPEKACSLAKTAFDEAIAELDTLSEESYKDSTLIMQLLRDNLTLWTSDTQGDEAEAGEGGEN
The assay can be described thus: Displacement of 32P-labeled phosphorylated Raf-259 peptide from immobilized GST/14-3-3 zeta (scintigraphy). Format: binding. The conditions noted are these: non-radiolabeled competitors. The protocol: The 14-3-3 protein isoforms for use in binding studies with the above peptides were prepared as proteins fused with glutathione-S-transferase (GST) and immobilized to glutathione agarose beads. GST/14-3-3 fusion proteins were made by generating BamHI and EcoRI restriction endonuclease sites (underlined) at the 5' and 3' ends respectively of the 14-3-3 cDNAs by polymerase chain reaction (PCR) using the following isoform sequence specific pairs of primers: 14-3-3 beta, […] (SEQ ID NO: 11), […] (SEQ ID NO: 12); 14-3-3 eta […] (SEQ ID NO: 13), […] (SEQ ID NO: 14); 14-3-3 tau […] (SEQ ID NO: 15), […] (SEQ ID NO: 16); 14-3-3 zeta […] (SEQ ID NO: 17), […] (SEQ ID NO: 18). The cDNA products were digested with BamHI and EcoRI, subcloned into the vector pGEX-KT (Guan and Dixon, Anal Biochem 192: 262-7, 1991 which is incorporated by reference). The vector was used to transform the DH5α strain of E. Coli. GST-14-3-3 fusion protein expression in log-growth phase bacterial cultures was accomplished by induction with 100 μM isopropyl β-D-thiogalactopyranoside (IPTG; Gold Biotechnology, St. Louis) for 4 hours. Cells were disrupted by sonication and lysates, containing 1% Triton X-100, were incubated with glutathione agarose beads (Sigma, St. Louis) at 4° C. overnight. Fusion proteins were eluted by incubation with 10 mM reduced glutathione (Sigma, St. Louis) in phosphate buffered saline for 1 hour at room temperature, dialyzed in phosphate buffered saline and quantitated by Coomassie staining SDS polyacrylamine gels compared against bovine serum albumin standards.
The Raf-259 peptide (SEQ ID NO: 4) was phosphorylated in vitro using protein kinase A (PKA) and [^32 P]-γ-ATP following the manufacturers instruction (PKA, New England Biolabs) with 20 μCi of [^32 P]-γ-ATP (NEN-Dupont, 6000 Ci/mmol). The efficiency of phosphorylation was calculated to be between 7 and 12% based upon the specific activity of the labelled peptide.
The labeled peptide was then incubated with immobilized 14-3-3 zeta fusion protein and binding of the labelled peptide was measured. […] Binding was also sequence specific. […]

In assay [2] the target is T1, 14-3-3 zeta. In words: SPR competitive inhibition of 14-3-3 zeta binding to chip-coupled phosphorylated Raf-259 peptide. The conditions noted are these: 14-3-3 zeta 0.5-1.0 μM; competitor 1-50 μM; relative affinity only. The protocol: (§1) The ability of each peptide to inhibit binding of 14-3-3 zeta to the phosphorylated peptide was then tested in a range of concentrations between 1 and 50 μM. 14-3-3 zeta was prepared according to the methods in Example 1 and binding affinities and specificities were determined using the peptides in Table 2. The 14-3-3 zeta fusion proteins (0.5-1.0 μM) were pre-incubated with a given peptide at concentrations between 1 μM and 50 μM. 14-3-3 zeta was then infused across a sensor chip surface which had been previously coupled with the phosphorylated Raf-259 peptide (SEQ ID NO: 4). IC50 values were determined by plotting the concentration of competitor peptide required to achieve a 50% reduction in equilibrium binding.

For a further assay, the target named is T2, 14-3-3 eta (Homo sapiens, UniProt Q04917).
T2 construct: made in house; host or cells: E. coli DH5α (vector pGEX-KT)
T2 sequence (Q04917 1-246): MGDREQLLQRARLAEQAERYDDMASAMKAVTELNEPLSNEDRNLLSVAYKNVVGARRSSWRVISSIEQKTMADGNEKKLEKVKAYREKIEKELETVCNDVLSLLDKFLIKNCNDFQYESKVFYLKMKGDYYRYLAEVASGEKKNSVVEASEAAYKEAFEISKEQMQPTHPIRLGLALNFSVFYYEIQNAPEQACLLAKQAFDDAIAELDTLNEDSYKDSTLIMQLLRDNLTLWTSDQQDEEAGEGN
The assay can be described thus: SPR competitive inhibition of 14-3-3 eta binding to phosphorylated Raf-259 peptide. Conditions: isoform eta. The protocol:
as §1
(§2) There are seven known isoforms of 14-3-3 which form homo- and heterodimers in vivo. If different isoforms of 14-3-3 could bind to proteins with distinct specificities, heterodimeric forms of 14-3-3 might function as modular linker proteins, bringing together different proteins into a single complex. We were, therefore, interested in determining whether different 14-3-3 isoforms recognize phosphoserine in a sequence specific fashion. This hypothesis was tested by expressing and purifying three other 14-3-3 isoforms, eta, beta and tau, and measuring their affinity towards the panel of phosphorylated peptides generated above. Using the Surface Plasmon Resonance method, the "on" and "off" rates for 14-3-3 binding to the phosphorylated Raf-259 peptide were calculated (Table 6).
(§3) Competitive inhibition with the mutated phosphorylated Raf-1 peptides was used to determine whether their specificities were similar (Table 7). In each case, the calculated IC50 s were very similar to those calculated for 14-3-3 zeta.

Another assay concerns the target T3, 14-3-3 tau (Homo sapiens, UniProt P27348).
T3 construct: made in house; host or cells: E. coli DH5α (vector pGEX-KT)
T3 sequence (P27348 1-245): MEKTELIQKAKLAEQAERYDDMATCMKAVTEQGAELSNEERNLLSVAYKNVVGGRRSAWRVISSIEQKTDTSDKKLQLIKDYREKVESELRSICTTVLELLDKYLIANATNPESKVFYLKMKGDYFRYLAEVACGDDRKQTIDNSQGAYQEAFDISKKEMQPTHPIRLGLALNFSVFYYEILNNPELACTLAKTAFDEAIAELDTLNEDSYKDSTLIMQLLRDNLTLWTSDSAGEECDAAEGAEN
The assay can be described thus: SPR competitive inhibition of 14-3-3 tau binding to phosphorylated Raf-259 peptide. The conditions noted are these: isoform tau. The protocol: as §1, §2, §3

Another assay addresses T4, 14-3-3 beta (Homo sapiens, UniProt P31946).
T4 construct: made in house; host or cells: E. coli DH5α (vector pGEX-KT)
T4 sequence (P31946 1-246): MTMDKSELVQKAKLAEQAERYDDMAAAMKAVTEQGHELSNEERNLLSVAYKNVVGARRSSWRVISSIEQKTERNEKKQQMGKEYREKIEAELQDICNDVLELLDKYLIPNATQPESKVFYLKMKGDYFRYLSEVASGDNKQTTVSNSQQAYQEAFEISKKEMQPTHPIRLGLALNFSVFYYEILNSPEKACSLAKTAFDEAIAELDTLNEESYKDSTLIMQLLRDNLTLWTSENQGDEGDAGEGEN
In words: SPR competitive inhibition of 14-3-3 beta binding to phosphorylated Raf-259 peptide. The conditions noted are these: isoform beta. The protocol: as §1, §2, §3

Another assay concerns the target T5, 14-3-3 protein (Homo sapiens, UniProt P63104).
T5 sequence (P63104 1-245): T1 sequence (P63104 1-245)
In words: Degenerate peptide pools tested as competitive inhibitors of 14-3-3 binding. The conditions noted are these: competitor peptide 10 μM; no peptide = 100%. How it is done: A series of degenerate peptides based upon phosphoserine Raf-621 peptide (SEQ ID NO: 10) were synthesized to confirm that the arginine in the -3 position, the serine in the -2 position and the proline in the +2 position were the critical motif residues (Table 5). Six pools of peptides were synthesized with all twenty amino acids placed in positions -5, -3, -2, -1, +1 and +2 respectively. Each pool of twenty peptides was tested as competitive inhibitors for binding. We reasoned that if a particular position is not critical for binding, the pool of twenty peptides should compete as well as wild-type peptide for binding. On the other hand, if a particular amino acid is required at a particular position, only a small fraction of the pool will be able to compete for binding, thus increasing (up to 20 fold) the concentration of peptide needed to inhibit binding.

Turning to `N[C@@H](COP(=O)(O)O)C(=O)O` [free phosphoserine, phosphoserine], on 14-3-3 zeta [1], the “displacement of bound labeled phosphorylated peptide from 14-3-3 zeta” value is reported as “Neither”.

Turning to `CC[C@H](C)[C@H](NC(=O)[C@H](CCCCN)NC(=O)[C@@H]1CCCN1C(=O)[C@@H](N)CC(C)C)C(=O)N[C@@H](CC(N)=O)C(=O)N[C@@H](CCCNC(=N)N)C(=O)N[C@@H](CO)C(=O)N[C@@H](C)C(=O)N[C@@H](COP(=O)(O)O)C(=O)N[C@@H](CCC(=O)O)C(=O)N1CCC[C@H]1C(=O)N[C@@H](CO)C(=O)N[C@@H](CC(C)C)C(=O)N[C@@H](Cc1c[nH]cn1)C(=O)N[C@@H](CCCNC(=N)N)C(=O)O` [pS-Raf-621, Leu-Pro-Lys-Ile-Asn-Arg-Ser-Ala-Xaa-Glu-Pro-Ser-Leu-His-Arg] (H-LPKINRSA[pS]EPSLHR-OH), the IC50 at 14-3-3 zeta [2] was ~1 µM and 1 µM; on 14-3-3 eta it was 3 µM; on 14-3-3 tau it was 2 µM; on 14-3-3 beta, 2 µM. Also, the “% BINDING @ 10 μM” value on 14-3-3 protein is on record as less than 5%.

In general, IC50 refers to the point on the concentration scale where inhibition reaches its midpoint.
